In ChEMBL document CHEMBL4477163, “Rubiaceae-Type Cyclopeptides from Galianthe thalictroides” (2016):
In brackets after ≈: the same amount, converted by molar mass.

Experiments:
Assay type in all cases: functional
HT-29 = assay: Cytotoxicity against human HT-29 cells by sulforhodamine B assay
786-0 = assay: Cytotoxicity against human 786-0 cells by sulforhodamine B assay
PC-3 = assay: Cytotoxicity against human PC3 cells by sulforhodamine B assay
P388 = assay: Cytotoxicity against mouse P388 cells at 1 mg/ml relative to control

SMILES | GI50 (HT-29) | GI50 (786-0) | GI50 (PC-3) | T/C (P388)
COc1cccc2c1C(=O)c1c(O)c3c(c(O)c1C2=O)C[C@@](O)(C(=O)CO)C[C@@H]3O[C@H]1C[C@H](N)[C@H](O)[C@H](C)O1 [DOXORUBICIN] | 0.27 mg/L (≈ 0.497 µM) | 0.02 mg/L (≈ 0.0368 µM) | 0.35 mg/L (≈ 0.644 µM) | 
COc1ccc(C[C@H]2C(=O)N[C@@H](C)C(=O)N(C)[C@@H]3C(=O)N(C)[C@@H](Cc4ccc(OC)c(c4)Oc4ccc(cc4)[C@@H]3O)C(=O)N[C@H](C)C(=O)N[C@@H](C)C(=O)N2C)cc1 | 0.07 mg/L (≈ 0.089 µM) | 0.07 mg/L (≈ 0.089 µM) | 0.06 mg/L (≈ 0.0763 µM) | 134%
COc1ccc(C[C@H]2C(=O)N[C@@H](C)C(=O)N(C)[C@@H]3C(=O)N(C)[C@@H](Cc4ccc(OC)c(c4)Oc4ccc(cc4)[C@@H]3O)C(=O)N[C@H](C)C(=O)N[C@@H](CO)C(=O)N2C)cc1 | 1.8 mg/L (≈ 2.24 µM) | 1.14 mg/L (≈ 1.42 µM) | 0.26 mg/L (≈ 0.324 µM) | 
